Results taken from patent US11076595B2, “1-(n,n-disubstituted carbamoyl) 4-(substituted sulfonyl)triazolin-5-one derivative, 4-(n,n-disubstituted carbamoyl) 1-(substituted sulfonyl)triazolin-5-one derivative, and herbicide containing said derivative as active ingredient” (HOKKO CHEMICAL INDUSTRY CO., LTD., priority 2017, dated 2021).

Key:
Type in all cases: in vivo
Lindernia pyxidaria [1] = assay: Test Example 1: herbicidal effect test by soil treatment in paddy field; conditions: 120 g/10a, paddy soil treatment just after sowing, 14 days after treatment
Method in brief: (§1)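 Paddy soil in flooded pots (~3 cm water), sown with 30 seeds per species at 0–1 cm depth, kept in a greenhouse. Water-diluted emulsifiable concentrate applied dropwise right after sowing at 120 g active ingredient per 10 are. Weed suppression (%) from dry weight vs untreated pots after 14 days, two replicates.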

Scirpus juncoides [2] = assay: as above; conditions: 120 g/10a, paddy soil treatment just after sowing, 14 days after treatment
Method in brief: as §1

Monochoria vaginalis [3] = assay: as above; conditions: 120 g/10a, paddy soil treatment just after sowing, 14 days after treatment
Method in brief: as §1

Echinochloa crus-galli [4] = assay: as above; conditions: 120 g/10a, paddy soil treatment just after sowing, 14 days after treatment
Method in brief: as §1

crabgrass [5] = assay: Test Example 3: herbicidal effect test by soil treatment in upland field; conditions: upland field soil treatment 1 day after sowing; 120 g/10a; evaluated 14 days after treatment
Description: (§2) This test was performed with two replications per one formulation concentration plot, and 14 days after the formulation treatments, the weed suppression rate (%) was determined according to the following equation (Math. 1). Weed suppression rate (%)=(1−an average dry weight (g) of plants in treated plots/an average dry weight (g) of plants in untreated plots)×100 [Math. 1]
(§3) A pot having a size of 36 cm^2 was filled with field soil (alluvial soil) and after uniformly mixing the soil of the surface layer of 1 cm with 20 grains of each weed seed of crabgrass, Echinochloa crus-galli, Chenopodium album and Amaranthus viridis, the surface layer was pressed lightly. One day after the sowing, an emulsifiable concentrate prepared according to Formulation Example 5 by using the compound shown in Table 7 below was diluted with water, and the water-diluted formulation was sprayed on the soil surface at a ratio of 100 liter per 10 are. The application rate of the active ingredient, by conversion, corresponded to 120 g per 10 are. Fourteen days after the formulation treatment, the herbicidal effect was evaluated by the same criteria as in Test Example 1.

Chenopodium album [6] = assay: as above; conditions: upland field soil treatment 1 day after sowing; 120 g/10a; evaluated 14 days after treatment
Description: as §2, §3

Amaranthus viridis [7] = assay: as above; conditions: upland field soil treatment 1 day after sowing; 120 g/10a; evaluated 14 days after treatment
Description: as §2, §3

Echinochloa crus-galli [8] = assay: as above; conditions: upland field soil treatment 1 day after sowing; 120 g/10a; evaluated 14 days after treatment
Description: as §2, §3

crabgrass [9] = assay: Test Example 4: herbicidal effect test by foliage treatment in upland field; conditions: upland field foliage treatment 7 days after sowing; 120 g/10a; evaluated 14 days after treatment
Description: as §2
as §3, with “Seven days” for “One day”, “8” for “7”

Chenopodium album [10] = assay: as above; conditions: upland field foliage treatment 7 days after sowing; 120 g/10a; evaluated 14 days after treatment
Description: as §2
as §3, with “Seven days” for “One day”, “8” for “7”

Amaranthus viridis [11] = assay: as above; conditions: upland field foliage treatment 7 days after sowing; 120 g/10a; evaluated 14 days after treatment
Description: as §2
as §3, with “Seven days” for “One day”, “8” for “7”

Echinochloa crus-galli [12] = assay: as above; conditions: upland field foliage treatment 7 days after sowing; 120 g/10a; evaluated 14 days after treatment
Description: as §2
as §3, with “Seven days” for “One day”, “8” for “7”

Lindernia pyxidaria [13] = assay: Test Example 2: herbicidal effect test by treatment during growing period in paddy field; conditions: treatment 7 days after sowing, 120 g/10a, evaluated 14 days after treatment
Method in brief: (§4)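 Read-out is weed suppression (%), 1 − mean dry weight treated/untreated ×100, taken 14 days after treatment with duplicate plots. Treatment: water-diluted emulsifiable concentrate added dropwise to flooded paddy-soil pots 7 days post-sowing at 120 g active ingredient per 10 are.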

Scirpus juncoides [14] = assay: as above; conditions: treatment 7 days after sowing, 120 g/10a, evaluated 14 days after treatment
Method in brief: as §4

Monochoria vaginalis [15] = assay: as above; conditions: treatment 7 days after sowing, 120 g/10a, evaluated 14 days after treatment
Method in brief: as §4

Echinochloa crus-galli [16] = assay: as above; conditions: treatment 7 days after sowing, 120 g/10a, evaluated 14 days after treatment
Method in brief: as §4

SMILES | weed suppression rate, Lindemia pyxidaria (Lindernia pyxidaria [1]) [%] | weed suppression rate, Scirpus juncoides (Scirpus juncoides [2]) [%] | weed suppression rate, Monochoria vaginalis (Monochoria vaginalis [3]) [%] | weed suppression rate, Echinochloa crus-galli (Echinochloa crus-galli [4]) [%] | herbicidal effect (weed suppression rate), Crabgrass (crabgrass [5]) [%] | herbicidal effect (weed suppression rate), Chenopodium album (Chenopodium album [6]) [%] | herbicidal effect (weed suppression rate), Amaranthus viridis (Amaranthus viridis [7]) [%] | herbicidal effect (weed suppression rate), Echinochloa crus-galli (Echinochloa crus-galli [8]) [%] | herbicidal effect (weed suppression rate), Crabgrass (crabgrass [9]) [%] | herbicidal effect (weed suppression rate), Chenopodium album (Chenopodium album [10]) [%] | herbicidal effect (weed suppression rate), Amaranthus viridis (Amaranthus viridis [11]) [%] | herbicidal effect (weed suppression rate), Echinochloa crus-galli (Echinochloa crus-galli [12]) [%] | weed suppression rate, Lindemia pyxidaria (Lindernia pyxidaria [13]) [%] | weed suppression rate, Scirpus juncoides (Scirpus juncoides [14]) [%] | weed suppression rate, Monochoria vaginalis (Monochoria vaginalis [15]) [%] | weed suppression rate, Echinochloa crus-galli (Echinochloa crus-galli [16]) [%]
CC(C)N(C(=O)n1ncn(S(=O)(=O)C2CC2)c1=O)c1cccc(F)c1F [Compound 1-198] | 100 | 100 | 100 | 100 | 100 | 100 | 100 | 100 | 100 | 80 | 80 | 100 | 100 | 80 | 100 | 100
CC(C)N(C(=O)n1ncn(S(=O)(=O)C(C)C)c1=O)c1ccc(F)cc1F [Compound 1-65] | 100 | 100 | 100 | 100 | 100 | 90 | 80 | 100 | 90 | 80 | 90 | 80 | 90 | 90 | 90 | 100
CC(C)N(C(=O)n1ncn(S(=O)(=O)C2CC2)c1=O)c1ccc(Cl)cc1F [Compound 1-215] | 100 | 100 | 100 | 100 | 80 | 80 | 80 | 80 | 90 | 60 | 60 | 90 | 100 | 100 | 100 | 100
CC(C)N(C(=O)n1ncn(S(=O)(=O)C(C)C)c1=O)c1ccc(Cl)cn1 [Compound 1-93] | 100 | 90 | 80 | 90 | 90 | 40 | 80 | 90 | 90 | 0 | 0 | 90 | 100 | 90 | 90 | 100
CC(C)N(C(=O)n1ncn(S(=O)(=O)C2CCCCC2)c1=O)c1ccc(F)cc1Cl [Compound 1-313] | 80 | 90 | 80 | 90 | 90 | 80 | 90 | 80 | 90 | 80 | 90 | 80 | 80 | 90 | 80 | 90
CC(C)N(C(=O)n1ncn(S(=O)(=O)C(C)C)c1=O)c1cccnc1F [Compound 1-241] | 90 | 80 | 90 | 100 | 90 | 90 | 90 | 90 | 90 | 70 | 50 | 90 | 90 | 80 | 80 | 100
CC(C)N(C(=O)n1ncn(S(=O)(=O)C2CCCCC2)c1=O)c1ccc(Cl)cc1Br [Compound 1-318] | 90 | 100 | 90 | 100 | 100 | 50 | 50 | 100 | 80 | 60 | 60 | 80 | 80 | 80 | 80 | 100
CC(C)N(C(=O)n1ncn(S(=O)(=O)C(C)C)c1=O)c1ccc(Cl)nc1Cl [Compound 1-98] | 90 | 90 | 90 | 100 | 90 | 80 | 90 | 80 | 90 | 80 | 90 | 80 | 80 | 90 | 90 | 100
CC(C)N(C(=O)n1ncn(S(=O)(=O)C2CCOCC2)c1=O)c1ccc(F)cc1F [Compound 1-1150] | – | – | – | – | 100 | 100 | 100 | 100 | 90 | 80 | 90 | 80 | – | – | – | –
